Reference: US20230257383A1, “COMPOUND SERVING AS BTK INHIBITOR, PREPARATION METHOD THEREFOR, AND USE THEREOF” (CHENGDU HYPERWAY PHARMACEUTICALS CO., LTD., priority 2020, published 2023)
Read-outs that look alike come from different tables or passages of the source.

How the values were obtained:
[1] = tested on: NCI-N87 cell proliferation; experiment: In vitro cell proliferation inhibitory activity test (CTG), NCI-N87; assay type: cell-based; settings: Homo sapiens
Experimental: (§1) Test Example 4: In Vitro Cell Proliferation Inhibitory Activity Test
(§2) Cells were cultured in 1640 medium, added with 10% inactivated FBS and 1% double antibiotics, and cultured at 37° C. and 5% CO2.
(§3) (1) Cells were routinely cultured until the cell density was 80%-90%, and the cells were harvested when their number reached the requirement.
(§4) (2) Cells were resuspended with corresponding culture medium, counted, and prepared into cell suspension at appropriate density.
(§5) (3) The cell suspension was added to a 96-well plate, 100 μL per well.
(§6) (4) Cells were cultured overnight in a 37° C., 5% CO2 incubator.
(§7) (1) The compounds to be tested were diluted with DMSO to make a stock solution with a final concentration of 20 mM for later use.
(§8) (2) The stock solution was diluted 10 times from 20 mM to 2 mM with DMSO, and then diluted 3 times from 2 mM to 9 concentrations.
(§9) (3) The blank control wells were cells plus 0.5% DMSO, as high-reading control wells.
(§10) (4) Wells with no cells and only medium were used as low-reading control wells.
(§11) 4: Cell treatment with compound
(§12) (1) 24 h after the cells were plated, the compounds acted alone, and 99 μL of growth medium was added to each well, followed by 1 μL of the compound prepared in step 3. The plate was shaken gently to mix uniformly, and then placed in a 37° C., 5% CO2 incubator.
(§13) (2) The cell plate was placed in an incubator for 72 h.
(§14) 5: Detection by CTG method
(§15) (1) The cell plate to be tested was placed at room temperature for 30 min, and 100 μL of medium was discarded from each well.
(§16) (2) 100 μL of CTG reagent (CelltiterGlo kit) was added to each well, placed on a fast shaker for 2 min, and stood at room temperature in the dark for 30 min.
(§17) (3) The chemiluminescent signal value was read with the Envision instrument.
(§18) IC50 was calculated by using GraphPad Prism 8 software. The IC50 (half inhibitory concentration) of the compound was derived using the following nonlinear fitting formula, and the results are shown in the following table:
(§19) Y=Bottom+(Top−Bottom)/(1+10^((Log IC50−X)×HillSlope))
(§20) X: log value of compound concentration, Y: inhibition rate (% inhibition)
(§21) Inhibition rate (% inhibition)=(reading of high-reading control well-reading of compound well)/(reading of high-reading control well-reading of low-reading control well)×100

BT474 cell proliferation = experiment: In vitro cell proliferation inhibitory activity test (CTG), BT474; assay type: cell-based; settings: Homo sapiens, BT-474, BT474 cell proliferation
Experimental: as §1, §2, §3, §4, §5, §6, §7, §8, §9, §10, §11, §12, §13, §14, §15, §16, §17, §18, §19, §20, §21

HER2 kinase = HER2 kinase (Homo sapiens, UniProt P04626); experiment: HER2 kinase activity test (HTRF); assay type: biochemical
Experimental: Test Example 5: HER2 Kinase Activity Test
1. Her2 Kinase test steps
2) 100 nl of the diluted compound working solution was transferred into each well of a reaction plate (784075, Greiner) by an Echo 550 liquid hander. The reaction plate was sealed with a sealing film and centrifuged at 1000 g for 1 min.
3) 1 ng/μL Her2 kinase solution was prepared with 1× kinase reaction buffer.
4) 5 μL of the kinase solution prepared above was added to each well of the reaction plate. The plate was sealed with a sealing film, centrifuged at 1000 g for 1 min, and placed at room temperature for 10 min.
5) A mixture of 2× kinase substrate and ATP was prepared by using 1× kinase reaction buffer, and the 2× Her2 kinase substrate was 2 μM TK-substrate-biotin and 4 μM ATP
6) 5 μL of the mixture of 2× TK-substrate-biotin and ATP was added to the reaction plate, centrifuged at 1000 g for 30 seconds to start the reaction.
7) Her2 kinase test was performed at room temperature for 50 min of reaction.
9) 10 μL of the mixture of Sa-XL 665 and TK-antibody-Cryptate was added to each well, centrifuged at 1000 g for 30 seconds, and reacted at room temperature for 1 h.
10) The fluorescence signals at 615 nm (Cryptate) and 665 nm (XL665) were read by Envision 2104.
1) The percentage inhibition was calculated as follows: […]
Ratiopositive control: average value of Ratio 665/615 nm of all positive control wells in the plate.
Rationegative control: average value of Ratio 665/615 nm of all negative control wells in the plate.
2) Calculation of IC50 and fitting of dose-effect curve of compound:
The IC50 of the compound was derived using the following nonlinear fitting formula with GraphPad 6.0.
Y=Bottom+(Top−Bottom)/(1+10^((Log IC50−X)×HillSlope)).
X: log value of compound concentration; Y: percentage inhibition of compound

[2] = Blood-brain barrier permeability test, oral, SD rats; assay type: in vivo; settings: rat, oral 10 mg/kg single dose; for concentration at 1 h / Kp at 1 h: time point 1 h; for concentration at 4 h / Kp at 4 h: time point 4 h
Experimental: Test Example 6: Blood-Brain Barrier Permeability Test
Each test compound was administered orally at a single dose of 10 mg/kg to SD rats for pharmacokinetic study. Each group included 9 rats. The test compound was dissolved in 5% DMSO+10% solutol+85% saline, vortexed for 1-2 min, and ultrasonicated for 5-10 min to prepare into a colorless, transparent and clear administration solution. Animals were fasted overnight before administration. 1 h, 2 h, and 4 h after administration, three SD rats were selected from each group to take about 0.2-0.3 mL of blood through their orbit. The blood sample was placed on ice once collected, and centrifuged to separate the plasma within 15 min (centrifugation conditions: 8000 rpm, 1 min, room temperature). The collected plasma was stored at −20° C. before analysis. Immediately after blood collection, the cerebrospinal fluid and brain tissue were collected. The cerebrospinal fluid was draw out by dural puncture with a micro-sampler syringe under direct vision. Namely, about 100 μl of cerebrospinal fluid was collected with a 100 μl micro sample syringe from the rat that was anesthetized by chloral hydrate, with the head-fixed, the back hair-cut off, a transverse incision (2 cm) made at the line connecting the roots of the two ears, and the muscle layer of the neck and skull base bluntly scraped to expose the foramen magnum. The cerebrospinal fluid was stored at −20° C. before analysis. The rat then was sacrificed immediately, with its head cut off. The dissected brain tissue, with the surface capillaries peeled off, was weighed, added with 3 times the amount of cold saline, homogenized by a homogenizer for 1 min, and stored at −20° C. before analysis. 20 μL of plasma sample and brain homogenate sample was respectively added into 200 μL of working internal standard solution (the same volume of vehicle was added to the blank instead of internal standard), vortexed for 1 min, and centrifuged at 13500 rpm for 10 min. 100 μL of the supernatant was taken and analyzed by LC-MS/MS. 20 μL of the cerebrospinal fluid was added into 60 μL of working internal standard solution (the same volume of vehicle, instead of internal standard, was added to the blank), vortexed for 1 min, and centrifuged at 13500 rpm for 10 min. 50 μL of the supernatant was taken and analyzed by LC-MS/MS.

DOHH2 cell proliferation = experiment: In vitro cell proliferation inhibitory activity test (CTG), DOHH2; assay type: cell-based; settings: Homo sapiens, DOHH-2
Experimental: as §1, §2, §3, §4, §5, §6, §7, §8, §9, §10, §11, §12, §13, §14, §15, §16, §17, §18, §19, §20, §21

[3] = Liver microsome metabolic stability test (human); assay type: in vitro ADME; settings: liver microsomes, read-out: CLint (μL/min/mg) Human
Experimental: (§22) 1: To the sample wells of T0, T5, T10, T20, T30, T60 and NCF60, 10 μL of the test or reference working solution and 80 μL of microsome working solution (hepatic microsome with a protein concentration of 0.5 mg/mL) were added, and to Blank60 well, only the microsome working solution was added. Then samples of the Blank60, T5, T10, T20, T30 and T60 other than TO and NCF60 were placed in a 37° C. water bath and pre-incubated for about 10 min.
(§23) 2: To the TO sample well, 300 μL of stop solution (containing 200 ng/mL tolbutamide and 200 ng/mL labetalol in acetonitrile solution) was added first, followed by 10 μL of NADPH regeneration system working solution.
(§24) 3: After the pre-incubation of Blank60, T5, T10, T20, T30 and T60 incubation plates, 10 μL of NADPH regeneration system working solution was added to each sample well to start the reaction, and 10 μL of 100 mM potassium phosphate buffer was added to the NCF60 sample well.
(§25) 4: After incubation for an appropriate time (such as 5, 10, 20, 30 and 60 min), to each test sample well and control well of the Blank60, T5, T10, T20, T30, T60 and NCF60 plates, 300 μL of stop solution was added to terminate the reaction.
(§26) 5: All sample plates were shaken to mix well and centrifuged at 4000 rpm for 20 min, and 100 μL of the supernatant of the test sample or control sample was taken and diluted with 300 μL of pure water for LC-MS/MS analysis.
(§27) 6: Data analysis: T1/2 and CLint(mic) (μL/min/mg) values were calculated according to the first-order elimination kinetics. The first-order elimination kinetics equation was: […]

[4] = Liver microsome metabolic stability test (rat); assay type: in vitro ADME; settings: liver microsomes, read-out: CLint (μL/min/mg) Rat
Experimental: as §22, §23, §24, §25, §26, §27

TMD8 cell proliferation = experiment: In vitro cell proliferation inhibitory activity test (CTG), TMD8; assay type: cell-based; settings: Homo sapiens, TMD8, 72 h, TMD8 cells
Experimental: as §1, §2, §3, §4, §5, §6, §7, §8, §9, §10, §11, §12, §13, §14, §15, §16, §17, §18, §19, §20, §21

[5] = brain, read-out: Drug concentration in brain tissue
[6] = brain/plasma, read-out: Brain tissue/plasma
[7] = cerebrospinal fluid, read-out: Drug concentration in cerebrospinal fluid
[8] = cerebrospinal fluid/plasma, read-out: Cerebrospinal fluid/plasma
[9] = plasma, read-out: Plasma drug concentration

Chain of HER2 kinase (P04626 23-1255): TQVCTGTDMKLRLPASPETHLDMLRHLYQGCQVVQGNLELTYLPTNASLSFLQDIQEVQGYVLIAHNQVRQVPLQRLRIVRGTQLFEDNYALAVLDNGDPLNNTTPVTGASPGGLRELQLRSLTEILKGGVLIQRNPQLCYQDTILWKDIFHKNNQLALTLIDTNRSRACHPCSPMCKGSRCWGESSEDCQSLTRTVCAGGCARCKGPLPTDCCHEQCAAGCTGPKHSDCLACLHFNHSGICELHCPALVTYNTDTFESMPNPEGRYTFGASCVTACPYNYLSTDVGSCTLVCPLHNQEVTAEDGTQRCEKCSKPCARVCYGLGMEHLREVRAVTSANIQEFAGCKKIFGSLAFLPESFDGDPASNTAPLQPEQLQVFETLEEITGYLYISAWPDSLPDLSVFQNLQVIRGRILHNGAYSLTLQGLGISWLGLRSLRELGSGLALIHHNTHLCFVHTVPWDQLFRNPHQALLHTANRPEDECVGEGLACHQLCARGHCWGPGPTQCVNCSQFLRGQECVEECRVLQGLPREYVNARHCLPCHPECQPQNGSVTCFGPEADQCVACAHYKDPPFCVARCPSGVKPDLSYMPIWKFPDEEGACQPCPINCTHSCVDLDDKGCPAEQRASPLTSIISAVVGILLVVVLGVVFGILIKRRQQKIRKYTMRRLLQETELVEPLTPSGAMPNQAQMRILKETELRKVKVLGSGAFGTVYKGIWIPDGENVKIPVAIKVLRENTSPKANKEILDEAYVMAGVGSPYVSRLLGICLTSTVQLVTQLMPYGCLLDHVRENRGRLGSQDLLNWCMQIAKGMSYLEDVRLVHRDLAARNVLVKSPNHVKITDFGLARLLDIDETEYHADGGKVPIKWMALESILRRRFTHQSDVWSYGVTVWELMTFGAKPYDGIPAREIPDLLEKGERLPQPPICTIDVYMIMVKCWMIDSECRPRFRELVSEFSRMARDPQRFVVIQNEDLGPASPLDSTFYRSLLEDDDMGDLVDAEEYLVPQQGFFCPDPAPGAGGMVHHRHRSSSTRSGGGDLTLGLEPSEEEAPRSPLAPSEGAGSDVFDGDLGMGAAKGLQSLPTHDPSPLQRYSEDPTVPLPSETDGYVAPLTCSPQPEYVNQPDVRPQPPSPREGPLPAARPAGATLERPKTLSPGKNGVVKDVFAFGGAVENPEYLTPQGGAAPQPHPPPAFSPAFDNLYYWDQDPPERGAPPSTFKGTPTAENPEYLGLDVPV

concentration at 1 h [2, 5] [ng/g] | concentration at 4 h [2, 5] [ng/g] | Kp at 1 h [2, 6] | Kp at 4 h [2, 6] | concentration at 1 h [2, 7] [ng/mL] | concentration at 4 h [2, 7] [ng/mL] | Kp at 1 h [2, 8] | Kp at 4 h [2, 8] | concentration at 1 h [2, 9] [ng/mL] | concentration at 4 h [2, 9] [ng/mL] | microsomal CLint [3] [µL/min/mg] | microsomal CLint [4] [µL/min/mg] | concentration at 2 h ([2]; brain, time point 2 h, read-out: Drug concentration in brain tissue) [ng/g] | Kp at 2 h ([2]; brain/plasma, time point 2 h, read-out: Brain tissue/plasma) | concentration at 2 h ([2]; plasma, time point 2 h, read-out: Plasma drug concentration) [ng/mL] | SMILES | IC50 [1] [nM] | IC50 (BT474 cell proliferation) [nM] | IC50 (HER2 kinase) [nM] | IC50 (DOHH2 cell proliferation) [nM] | IC50 (TMD8 cell proliferation) [nM]
296 | 410 | 0.78 | 1.1 | 27.4 | 34.3 | 0.072 | 0.092 | 380 | 373 | – | – | – | – | – | Nc1nccn2c(C34CCC(CO)(CC3)OC4)nc(-c3ccc(C(F)(F)c4cccc(F)c4Cl)cc3)c12 [Example 146] | 82 | 86.9 | 3.92 | – | –
– | – | – | – | – | – | – | – | – | – | – | – | – | – | – | Nc1nccn2c(C34CCC(CO)(CC3)OC4)nc(-c3ccc(C(F)(F)c4cccc(F)c4F)cc3)c12 [Example 130] | 100 | 89.9 | 4.35 | – | –
84 | 13.3 | 0.118 | 0.054 | – | – | – | – | 713 | 226 | 13.1 | 32.9 | 31.1 | 0.06 | 515 | CC#CC(=O)N1CC[C@@H](n2c(=O)n(-c3ccc(Oc4ccccc4)cc3)c3c(N)ncnc32)C1 [Tirabrutinib, reference compound] | – | – | – | 8090 | 158
